Key:
bovine rhodopsin = bovine rhodopsin (Bos taurus, UniProt P02699); settings: cited from earlier work
[1] = Critical micelle concentration (CMC) by dye solubilization (Orange OT or DPH); type: physicochemical
Text: Aqueous solubilization of Orange OT was used to determine critical micelle concentrations (CMC). […] Facile self-association of these amphiphiles under these conditions may be hindered by the hydrophilicity and/or steric bulk of the triglucoside and dimaltoside headgroups.
The Critical Micelle Concentrations (CMCs) of compounds of the invention can be determined by standard techniques known to those of skill in the art. For example, CMCs of the carbohydrate-based amphiphiles described herein can be determined by monitoring uptake of a dye (e.g., Orange OT or 1,6-diphenylhexatriene) with increasing detergent concentration, monitored by UV-visible or fluorescence spectroscopy.

bacteriorhodopsin (bR) = molecular target: T1, bacteriorhodopsin (bR) (Halobacterium salinarum, UniProt P02945); settings: cited from earlier work
T1 sequence (P02945 14-262): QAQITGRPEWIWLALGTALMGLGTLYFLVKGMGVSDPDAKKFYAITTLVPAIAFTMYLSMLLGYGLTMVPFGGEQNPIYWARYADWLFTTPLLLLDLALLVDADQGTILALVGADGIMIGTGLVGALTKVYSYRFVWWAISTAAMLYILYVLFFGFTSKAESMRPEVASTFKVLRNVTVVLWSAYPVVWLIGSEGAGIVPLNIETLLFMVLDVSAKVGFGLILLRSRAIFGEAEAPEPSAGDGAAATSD

[2] = system: LHI-RC superassembly in Rhodobacter capsulatus membranes; settings: solubilized protein, optical spectroscopy
Text: These complexes, normally embedded in the bacterial membrane, are highly pigmented and several outcomes from an assay are possible, including no degradation, partial degradation or complete degradation upon solubilization, or no solubilization. Thus, graded comparative evaluations could be obtained for a set of candidates such as the amphiphiles described herein.
In the engineered strain of R. capsulatus employed, the photosynthetic unit was comprised of a very labile LHI complex and a more resilient RC complex. An ideal amphiphile for this system will extract the intact LHI-RC superassembly from a bacterial membrane preparation and maintain the natural interactions among the components. Amphiphiles with a more disruptive effect will dissociate and denature LHI, leaving only intact RC, and even harsher amphiphiles will cause RC degradation. Each of these various outcomes can be assessed unambiguously via optical spectroscopy (FIG. 2 inset).
Measurements. The starting material for the screening protocols and stability measurements included specialized photosynthetic membranes from an engineered strain of Rhodobacter (R.) capsulatus, U43[pUHTM86Bgl]
To begin the solubilization and purification process, frozen aliquots of R. capsulatus membranes were thawed, homogenized, and equilibrated to 32° C. for 30 minutes. […] For subsequent experiments, the amphiphiles were evaluated at 10-fold CMC during the solubilization step.
The membrane samples were allowed to incubate with the amphiphile for 30 minutes at 32° C. The solubilized material was then separated from the membrane debris in an ultracentrifuge at 315,000×g at 4° C. for 30 minutes. […] After a UV-Vis-nearIR absorption spectrum was recorded, the resuspended pellet was discarded. […] The tubes were then incubated and inverted for 1 hour at 4° C.
Once binding was complete, samples were loaded onto resin-retaining spin columns (e.g., emptied His Spin Trap™ columns; GE Healthcare). The columns were then inserted into a 2 mL microcentrifuge tube to retain the filtered solution during centrifugation. […] Finally, protein was eluted into a fresh microcentrifuge tube with three 0.2 mL elution buffer aliquots (this buffer was identical to binding buffer with the addition of 1 M imidazole).
The R. capsulatus LHI-RC complexes extracted and purified by this procedure contain large numbers of cofactors that have absorptions at distinct wavelengths, and each component of the LHI-RC superassembly has a different inherent stability outside the lipid bilayer. The solubilization protocol outlined above therefore provides a multifaceted assessment of the efficacy of conventional detergents and novel amphiphiles. UV-Vis absorption spectroscopy data obtained at various stages of the protocol allow one to determine which protein components have degraded at these stages. […] The disruption potential was measured as the yield of superassembly extracted during solubilization (or, alternatively and more precisely, as the absence of superassembly in the pellet from the spin following solubilization).
The stabilizing propensity was determined from the spectra of the purified protein. An amphiphile was judged to be mild and stabilizing if it allowed the purification of fully intact LHI-RC superassembly (dominant absorption band at 875 nm). […] An amphiphile was judged to be of intermediate strength if it allowed for the purification of fully intact RC with damaged or missing LHI (dominant absorption at 800 nm with a shoulder at 875 nm; damaged LHI still bound to RC absorbs at 760 nm).
First, solubilization (illustrated in “STEP 1” of FIG. 12) denotes the ability of a surfactant to penetrate, integrate and disrupt a lipid bilayer.

[3] = determined by DPH (diphenylhexatriene) or Orange OT

CCCCC(CCCC)(CC(=O)NCCC[N+](C)(C)[O-])c1ccccc1 [TPA0, reference compound]
solubilization of bovine rhodopsin (bovine rhodopsin): effectively solubilized
stability of resulting protein solution (bovine rhodopsin) (bovine rhodopsin): stable for several weeks
critical micelle concentration (CMC) ([1]; aqueous solubilization of Orange OT): 5.5 mM
CMC [1, 3]: 4.4 mM
CMC (%) [1, 3]: 0.16%
solubilization of bacteriorhodopsin (bR) (bacteriorhodopsin (bR)): effectively solubilized
stability of resulting protein solution (bR) (bacteriorhodopsin (bR)): stable for several weeks
extraction of LHI-RC superassembly from R. capsulatus membranes [2]: too harsh to be useful for the preparation of intact superassembly
